# Measured values: publication PMC9005681, “Use of AD Informer Set compounds to explore validity of novel targets in Alzheimer's disease pathology” (Alzheimer's & Dementia : Translational Research & Clinical …, 2022)
# “Also recorded” adds a separate entry of the source. Like-named read-outs stand apart in the source and are kept apart here.
# Key:
# [1] = test system: BV2 (mouse microglia) immortalized cell line; conditions: 10 μM, murine immortalized microglial cells; cited from earlier work
# [2] = test system: BV2 (mouse microglia) immortalized cell line; conditions: 10 μM, murine immortalized microglial cells; cited from earlier work; remark: listed apart in the source
# [3] = mouse, IV, 3.0 mg/kg, published PK values; cited from earlier work
# [4] = Plasma plus brain concentrations at 1 h after IV dose; format: in vivo; conditions: mouse, brain and plasma, CD1 mice, IV 10 mg/kg
# Experimental: Compounds with acceptable PK were dosed IV at 10 mg/kg and plasma plus brain
# concentrations measured at 1h in CD1 mice (3 mice per cohort, Table 2). […]
# [5] = target: T1, dopamine transporter (Homo sapiens, UniProt Q01959); test: PDSP secondary binding, dopamine transporter; set-up: species or system human or rodent
# T1 construct: expressed in transfected cells
# Experimental: GPCR panel: Screening against the receptors within the PDSP panel offers an assessment of off-target pharmacological activity at cloned human or rodent CNS receptors, channels, and transporters that could confound CNS-related phenotypes. A total of 46–47 primary binding assays were run in quadruplicate on these compounds at 10 μM, with follow-up secondary binding assays in 11-point dose-response in triplicate for select compounds versus select receptors. Secondary binding assays were executed for all receptors where test compound displaced an average of >50% of radio-labeled standard ligand. As an exception, no secondary assays were carried out for H3, PBR, or GABAA. […]
# [6] = test system: HMC3 (human microglia) immortalized cell line; conditions: 10 μM, human immortalized microglial cells; cited from earlier work
# [7] = test system: cloned human or rodent CNS receptors, channels, and transporters (PDSP panel); test: PDSP GPCR panel primary binding assays at 10 μM; conditions: 10 μM; for Affinity for receptors in primary assays: 46-47 primary binding assays; for Inhibition 1 / Inhibition 2 / Inhibition 3 / Inhibition 4 / Mean %: primary assay; for Mean %: mean of Inhibition 1-4
# Summary of the method: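 Radioligand displacement at cloned human or rodent CNS targets: 46–47 primary binding assays run in quadruplicate at 10 μM. Targets where the compound displaced an average of >50% of radiolabeled standard ligand went to secondary binding in 11-point dose-response, in triplicate; none run for H3, PBR or GABAA.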
# [8] = test system: phospho-Tau (pTau, Thr231) and total Tau; test: p-tau and t-tau in iPSC-derived neuron lysates, multiplexed ELISA; format: cell-based, human; conditions: 48 hours, both doses (0.1, 1 μM)
# Experimental: Measurements of phospho-Tau (pTau, Thr231) and total Tau peptides were measured from neuronal lysates, also using a multiplexed ELISA assay. Using this assay, we measured the phospho:total tau ratio for each condition compared to vehicle (DMSO) treatment as well as the individual changes in phospho and total Tau peptides. Finally, all neuronal samples were examined morphologically for evidence of cytotoxicity.
# T1 sequence (Q01959 whole entry): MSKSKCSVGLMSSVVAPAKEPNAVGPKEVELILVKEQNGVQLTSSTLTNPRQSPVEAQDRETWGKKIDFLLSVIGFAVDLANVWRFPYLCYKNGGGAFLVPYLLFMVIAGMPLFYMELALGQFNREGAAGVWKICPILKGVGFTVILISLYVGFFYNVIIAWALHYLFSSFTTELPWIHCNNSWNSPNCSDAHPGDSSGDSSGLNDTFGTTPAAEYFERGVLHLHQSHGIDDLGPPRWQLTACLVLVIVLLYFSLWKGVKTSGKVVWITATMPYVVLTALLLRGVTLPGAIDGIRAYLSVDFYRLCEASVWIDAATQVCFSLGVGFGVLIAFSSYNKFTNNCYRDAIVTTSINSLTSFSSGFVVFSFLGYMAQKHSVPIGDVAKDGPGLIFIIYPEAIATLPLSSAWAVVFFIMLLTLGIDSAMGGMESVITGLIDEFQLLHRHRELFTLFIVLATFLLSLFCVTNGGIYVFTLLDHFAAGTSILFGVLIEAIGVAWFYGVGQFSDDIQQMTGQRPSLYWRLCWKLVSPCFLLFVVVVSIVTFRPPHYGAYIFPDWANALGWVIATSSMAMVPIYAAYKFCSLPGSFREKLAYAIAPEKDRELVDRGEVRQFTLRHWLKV
structure (smiles),measurement,setting,value
"CCCCNc1ncc2c(-c3ccc(CN4CCN(C)CC4)cc3)cn([C@H]3CC[C@H](O)CC3)c2n1 [UNC2025C, UNC2025]",Inhibition of mouse microglial phagocytosis at 10 μM (<70% control),[1],Y (The compound was found to inhibit phagocytosis (response threshold: <70% control) when murine immortalized microglial cells were dosed at 10 μM (Y: yes))
same,Mouse microglial cytotoxicity at 10 μM (<70% control),[2],Y (The compound was found to be cytotoxic (cell count threshold: <70% control) when murine immortalized microglial cells were dosed at 10 μM (Y: yes))
same,AUClast,[3],9.78 µM·h
same,Cmax,[3],4.36 µM
same,Vss,[3],2.33 L/kg
same,Kp at 1 h,[4],1.96
same,Ki,"[5]; Receptor DAT, secondary assay, printed as LogKi (negative), read-out: LogKi 1 (converted)",9770 nM
same,Ki,"[5]; Receptor DAT, secondary assay, read-out: Ki (nM) 1",9870 nM
same,Ki,"[5]; calculated Ki, secondary binding assay, read-out: Ki dopamine transporter",9900 nM
same,Inhibition of human microglial phagocytosis at 10 μM (<70% control),[6],Y (The compound was found to inhibit phagocytosis (response threshold: <70% control) when human immortalized microglial cells were dosed at 10 μM (Y: yes))
same,Affinity for receptors in primary assays,[7],possessed affinity for the most receptors in primary assays
same,Inhibition 1,[7]; Receptor Alpha1A,55.27%
same,Inhibition 2,[7]; Receptor Alpha1A,34.14%
same,Inhibition 3,[7]; Receptor Alpha1A,47.98%
same,Inhibition 4,[7]; Receptor Alpha1A,43.68%
same,Mean %,[7]; Receptor Alpha1A,45.27%
same,Inhibition 1,[7]; Receptor Alpha2A,41.44%
same,Inhibition 2,[7]; Receptor Alpha2A,35.02%
same,Inhibition 3,[7]; Receptor Alpha2A,40.8%
same,Inhibition 4,[7]; Receptor Alpha2A,38.73%
same,Mean %,[7]; Receptor Alpha2A,39%
same,Inhibition 1,[7]; Receptor Alpha2C,51.96%
same,Inhibition 2,[7]; Receptor Alpha2C,38.52%
same,Inhibition 3,[7]; Receptor Alpha2C,26.65%
same,Inhibition 4,[7]; Receptor Alpha2C,27.54%
same,Mean %,[7]; Receptor Alpha2C,36.17%
same,Inhibition 1,[7]; Receptor BZP Rat Brain Site,-0.21%
same,Inhibition 2,[7]; Receptor BZP Rat Brain Site,6.71%
same,Inhibition 3,[7]; Receptor BZP Rat Brain Site,5.47%
same,Inhibition 4,[7]; Receptor BZP Rat Brain Site,13.44%
same,Mean %,[7]; Receptor BZP Rat Brain Site,6.35%
same,Inhibition 1,[7]; Receptor DOR,-5.58%
same,Inhibition 2,[7]; Receptor DOR,-6.66%
same,Inhibition 3,[7]; Receptor DOR,-9.56%
same,Inhibition 4,[7]; Receptor DOR,1.65%
same,Mean %,[7]; Receptor DOR,-5.04%
same,Inhibition 1,[7]; Receptor H3,93.48%
same,Inhibition 2,[7]; Receptor H3,95.52%
same,Inhibition 3,[7]; Receptor H3,93.48%
same,Inhibition 4,[7]; Receptor H3,100.47%
same,Mean %,[7]; Receptor H3,95.74%
same,Inhibition 1,[7]; Receptor H4,42.06%
same,Inhibition 2,[7]; Receptor H4,42.3%
same,Inhibition 3,[7]; Receptor H4,60.79%
same,Inhibition 4,[7]; Receptor H4,92.47%
same,Mean %,[7]; Receptor H4,59.41%
same,Inhibition 1,[7]; Receptor Sigma 1,4.46%
same,Inhibition 2,[7]; Receptor Sigma 1,61.96%
same,Inhibition 3,[7]; Receptor Sigma 1,35.63%
same,Inhibition 4,[7]; Receptor Sigma 1,46.38%
same,Mean %,[7]; Receptor Sigma 1,37.11%
same,Inhibition 1,[7]; Receptor Sigma 2,97.53%
same,Inhibition 2,[7]; Receptor Sigma 2,96.04%
same,Inhibition 3,[7]; Receptor Sigma 2,97.25%
same,Inhibition 4,[7]; Receptor Sigma 2,98.03%
same,Mean %,[7]; Receptor Sigma 2,97.21%
"Cl.NC(=O)c1cnc(N[C@@H]2CCCC[C@@H]2N)nc1Nc1cccc(-n2nccn2)c1 [UNC10302682A, P505-15 (PRT06207 HCl)]",Levels of p-tau and t-tau,[8],reduction in the levels of p‐tau and t‐tau; also recorded: reduced p‐tau and t‐tau peptides to the same extent
same,Inhibition of mouse microglial phagocytosis at 10 μM (<70% control),[1],Y (The compound was found to inhibit phagocytosis (response threshold: <70% control) when murine immortalized microglial cells were dosed at 10 μM (Y: yes))
same,Kp at 1 h,[4],0.08
same,Inhibition of human microglial phagocytosis at 10 μM (<70% control),[6],Y (The compound was found to inhibit phagocytosis (response threshold: <70% control) when human immortalized microglial cells were dosed at 10 μM (Y: yes))
same,Affinity for receptors in primary assays,[7],possessed affinity for the most receptors in primary assays
same,Inhibition 1,[7]; Receptor Alpha1A,22.91%
same,Inhibition 2,[7]; Receptor Alpha1A,19.17%
same,Inhibition 3,[7]; Receptor Alpha1A,28.52%
same,Inhibition 4,[7]; Receptor Alpha1A,1.22%
same,Mean %,[7]; Receptor Alpha1A,17.96%
same,Inhibition 1,[7]; Receptor Alpha2A,21.38%
same,Inhibition 2,[7]; Receptor Alpha2A,23.31%
same,Inhibition 3,[7]; Receptor Alpha2A,19.6%
same,Inhibition 4,[7]; Receptor Alpha2A,16.75%
same,Mean %,[7]; Receptor Alpha2A,20.26%
same,Inhibition 1,[7]; Receptor Alpha2C,22.11%
same,Inhibition 2,[7]; Receptor Alpha2C,17.82%
same,Inhibition 3,[7]; Receptor Alpha2C,14.79%
same,Inhibition 4,[7]; Receptor Alpha2C,26.53%
same,Mean %,[7]; Receptor Alpha2C,20.31%
same,Inhibition 1,[7]; Receptor BZP Rat Brain Site,6.42%
same,Inhibition 2,[7]; Receptor BZP Rat Brain Site,10.02%
same,Inhibition 3,[7]; Receptor BZP Rat Brain Site,1.11%
same,Inhibition 4,[7]; Receptor BZP Rat Brain Site,13.06%
same,Mean %,[7]; Receptor BZP Rat Brain Site,7.65%
same,Inhibition 1,[7]; Receptor DOR,-18.41%
same,Inhibition 2,[7]; Receptor DOR,-4.86%
same,Inhibition 3,[7]; Receptor DOR,0.02%
same,Inhibition 4,[7]; Receptor DOR,6.53%
same,Mean %,[7]; Receptor DOR,-4.18%
same,Inhibition 1,[7]; Receptor H3,29.95%
same,Inhibition 2,[7]; Receptor H3,45.1%
same,Inhibition 3,[7]; Receptor H3,59.09%
same,Inhibition 4,[7]; Receptor H3,65.79%
same,Mean %,[7]; Receptor H3,49.98%
same,Inhibition 1,[7]; Receptor H4,11.34%
same,Inhibition 2,[7]; Receptor H4,13.02%
same,Inhibition 3,[7]; Receptor H4,28.62%
same,Inhibition 4,[7]; Receptor H4,77.11%
same,Mean %,[7]; Receptor H4,32.52%
same,Inhibition 1,[7]; Receptor Sigma 1,15.02%
same,Inhibition 2,[7]; Receptor Sigma 1,35.34%
same,Inhibition 3,[7]; Receptor Sigma 1,14.82%
same,Inhibition 4,[7]; Receptor Sigma 1,27.31%
same,Mean %,[7]; Receptor Sigma 1,23.12%
same,Inhibition 1,[7]; Receptor Sigma 2,57.01%
same,Inhibition 2,[7]; Receptor Sigma 2,56.94%
same,Inhibition 3,[7]; Receptor Sigma 2,67.96%
same,Inhibition 4,[7]; Receptor Sigma 2,81.11%
same,Mean %,[7]; Receptor Sigma 2,65.76%
